Tests used:
Type in all cases: cell-based
M1 muscarinic receptor = target: T1, M1 muscarinic receptor (Homo sapiens, UniProt P11229); assay: Functional mobilization of intracellular calcium (FLIPR) in CHO cells expressing M1; settings: for M1 Activity: CHO cells expressing M1, FLIPR calcium assay; for Emax: CHO, 100% efficacy = maximum response obtained with the Carbachol control
T1 construct: expressed in transfected cells; host or cells: CHO (M1-CHO)
T1 sequence (P11229 1-460): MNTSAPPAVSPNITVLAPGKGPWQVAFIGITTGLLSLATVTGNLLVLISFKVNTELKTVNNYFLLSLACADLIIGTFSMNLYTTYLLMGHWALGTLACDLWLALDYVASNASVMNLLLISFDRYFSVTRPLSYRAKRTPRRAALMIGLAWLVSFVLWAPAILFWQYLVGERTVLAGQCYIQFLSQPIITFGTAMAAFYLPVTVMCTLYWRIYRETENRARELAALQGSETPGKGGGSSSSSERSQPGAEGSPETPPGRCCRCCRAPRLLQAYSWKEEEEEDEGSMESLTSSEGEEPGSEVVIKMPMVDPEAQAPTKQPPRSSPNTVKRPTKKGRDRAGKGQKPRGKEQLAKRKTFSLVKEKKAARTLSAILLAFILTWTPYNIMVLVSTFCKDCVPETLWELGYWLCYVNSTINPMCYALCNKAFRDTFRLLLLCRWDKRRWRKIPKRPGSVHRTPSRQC
How it was run: (§1)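 Calcium flux is read on FLIPR over 60 sec at 488/540 nm in muscarinic-receptor CHO lines. Antagonist mode adds carbachol at EC80 after 15 min compound preincubation or with simultaneous co-application. Agonist mode adds compound alone. Cells carry Fluo-3 or Calcium 3 dye in probenecid-containing pH 7.4 buffer, 0.5% DMSO final.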

M2 muscarinic receptor = target: T2, M2 muscarinic receptor (Homo sapiens, UniProt P08172); assay: Functional mobilization of intracellular calcium (FLIPR) in CHO cells expressing M2; settings: for M2 Activity: CHO cells expressing M2, FLIPR calcium assay; for Emax: CHO, 100% efficacy = maximum response obtained with the Carbachol control
T2 construct: expressed in transfected cells; host or cells: CHO (M2-CHO)
T2 sequence (P08172 1-466): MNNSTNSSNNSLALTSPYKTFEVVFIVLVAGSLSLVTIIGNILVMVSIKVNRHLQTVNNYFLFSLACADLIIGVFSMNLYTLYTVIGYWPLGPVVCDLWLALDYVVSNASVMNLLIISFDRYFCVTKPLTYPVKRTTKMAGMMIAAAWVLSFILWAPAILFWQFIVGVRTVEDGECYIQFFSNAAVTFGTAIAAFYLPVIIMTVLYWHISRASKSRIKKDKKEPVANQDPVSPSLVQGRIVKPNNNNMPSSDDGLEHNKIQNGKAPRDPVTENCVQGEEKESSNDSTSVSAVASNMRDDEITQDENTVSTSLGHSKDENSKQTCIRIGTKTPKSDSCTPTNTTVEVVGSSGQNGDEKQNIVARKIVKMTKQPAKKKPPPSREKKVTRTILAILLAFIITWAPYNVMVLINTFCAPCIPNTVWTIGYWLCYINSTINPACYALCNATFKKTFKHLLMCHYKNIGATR
How it was run: as §1

M3 muscarinic receptor = target: T3, M3 muscarinic receptor (Homo sapiens, UniProt P20309); assay: Functional mobilization of intracellular calcium (FLIPR) in CHO cells expressing M3; settings: for M3 Activity: CHO cells expressing M3, FLIPR calcium assay; for Emax: CHO, 100% efficacy = maximum response obtained with the Carbachol control
T3 construct: expressed in transfected cells; host or cells: CHO (M3-CHO)
T3 sequence (P20309 whole entry): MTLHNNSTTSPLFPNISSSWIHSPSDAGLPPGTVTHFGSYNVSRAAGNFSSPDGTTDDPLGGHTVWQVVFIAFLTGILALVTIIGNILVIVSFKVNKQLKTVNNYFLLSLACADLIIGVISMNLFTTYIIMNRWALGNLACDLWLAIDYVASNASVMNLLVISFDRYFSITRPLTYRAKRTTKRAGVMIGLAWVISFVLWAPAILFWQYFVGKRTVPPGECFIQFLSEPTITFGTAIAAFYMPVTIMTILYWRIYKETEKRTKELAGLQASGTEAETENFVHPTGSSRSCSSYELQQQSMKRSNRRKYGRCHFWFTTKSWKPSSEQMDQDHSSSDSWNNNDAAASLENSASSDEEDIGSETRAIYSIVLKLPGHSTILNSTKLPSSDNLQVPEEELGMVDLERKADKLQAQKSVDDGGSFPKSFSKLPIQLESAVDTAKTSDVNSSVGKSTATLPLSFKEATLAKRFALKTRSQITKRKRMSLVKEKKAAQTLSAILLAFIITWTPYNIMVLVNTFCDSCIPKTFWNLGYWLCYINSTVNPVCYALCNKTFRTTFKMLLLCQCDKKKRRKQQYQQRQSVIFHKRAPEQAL
How it was run: as §1

M4 muscarinic receptor = target: T4, M4 muscarinic receptor (Homo sapiens, UniProt P08173); assay: Functional mobilization of intracellular calcium (FLIPR) in CHO cells expressing M4; settings: for M4 Activity: CHO cells expressing M4, FLIPR calcium assay; for Emax: CHO, 100% efficacy = maximum response obtained with the Carbachol control
T4 construct: expressed in transfected cells; host or cells: CHO (M4-CHO)
T4 sequence (P08173 1-479): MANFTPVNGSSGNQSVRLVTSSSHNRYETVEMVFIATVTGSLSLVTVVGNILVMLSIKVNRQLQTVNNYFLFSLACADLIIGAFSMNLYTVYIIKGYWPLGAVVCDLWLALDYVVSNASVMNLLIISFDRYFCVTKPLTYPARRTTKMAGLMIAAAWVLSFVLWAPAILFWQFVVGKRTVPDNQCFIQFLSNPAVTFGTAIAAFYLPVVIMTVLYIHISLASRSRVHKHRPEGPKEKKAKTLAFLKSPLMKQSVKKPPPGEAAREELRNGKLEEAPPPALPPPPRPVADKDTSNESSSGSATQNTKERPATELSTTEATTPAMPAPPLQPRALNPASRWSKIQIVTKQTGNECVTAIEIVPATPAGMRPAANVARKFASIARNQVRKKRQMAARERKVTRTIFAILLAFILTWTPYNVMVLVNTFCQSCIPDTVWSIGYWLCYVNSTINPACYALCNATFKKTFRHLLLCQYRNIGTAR
How it was run: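 Read-out: FLIPR fluorescence (ex 488, em 540 nm) over 60 s. Recombinant CHO lines are dye-loaded (Fluo-3 AM or Calcium 3) with 1 mM probenecid. For antagonist mode, compound is pre-incubated 15 min, or co-applied, then carbachol is added at 3× EC80 per subtype.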

SMILES	M1 Activity (M1 muscarinic receptor)	Emax (M1 muscarinic receptor) [%]	M2 Activity (M2 muscarinic receptor)	Emax (M2 muscarinic receptor) [%]	M3 Activity (M3 muscarinic receptor)	Emax (M3 muscarinic receptor) [%]	M4 Activity (M4 muscarinic receptor)	Emax (M4 muscarinic receptor) [%]
CC(=O)N(C)[C@H]1CCC2(CCN(CCC(C)(C)C)CC2)c2cc(F)ccc21 [compound 218]	+++ (activity was measured to be less than 2.0 μM)	25 to 100	+++ (activity was measured to be less than 2.0 μM)	< 25	+ (activity was measured to be greater than 5.0 μM)	< 25	+++ (activity was measured to be less than 2.0 μM)	25 to 100
Cn1cncc1C(=O)N[C@H]1CCC2(CCN(CCC(C)(C)C)CC2)c2ccccc21 [compound 219]	+++ (activity was measured to be less than 2.0 μM)	25 to 100	+++ (activity was measured to be less than 2.0 μM)	25 to 100	+ (activity was measured to be greater than 5.0 μM)	< 25	+++ (activity was measured to be less than 2.0 μM)	25 to 100
CC(C)(C)CCN1CCC2(CC[C@@H](NC(=O)C3CCCO3)c3ccccc32)CC1 (stereo partly shown) [compound 220]	+ (activity was measured to be greater than 5.0 μM)	< 25	+ (activity was measured to be greater than 5.0 μM)	< 25	+ (activity was measured to be greater than 5.0 μM)	< 25	+++ (activity was measured to be less than 2.0 μM)	25 to 100
CCN(C(=O)CCOC)[C@H]1CCC2(CCN(CCC(C)(C)C)CC2)c2ccccc21 [compound 221]	++ (activity was measured to be from 2.0 μM to 5.0 μM)	25 to 100	+ (activity was measured to be greater than 5.0 μM)	< 25	+ (activity was measured to be greater than 5.0 μM)	< 25	+++ (activity was measured to be less than 2.0 μM)	25 to 100
CC(C)(C)CCN1CCC2(CC[C@H](N3CCCCC3=O)c3ccc(F)cc32)CC1 [compound 222]	+++ (activity was measured to be less than 2.0 μM)	25 to 100	+ (activity was measured to be greater than 5.0 μM)	< 25	+ (activity was measured to be greater than 5.0 μM)	< 25	+++ (activity was measured to be less than 2.0 μM)	25 to 100
CCN(C(=O)Cc1ccncc1)[C@H]1CCC2(CCN(CCC(C)(C)C)CC2)c2ccccc21 [compound 223]	+ (activity was measured to be greater than 5.0 μM)	25 to 100	+ (activity was measured to be greater than 5.0 μM)	< 25	+ (activity was measured to be greater than 5.0 μM)	< 25	+++ (activity was measured to be less than 2.0 μM)	25 to 100
CC(C)(C)CCN1CCC2(CC[C@H](NC(=O)C(F)(F)F)c3ccccc32)CC1 [compound 224]	+++ (activity was measured to be less than 2.0 μM)	25 to 100	+ (activity was measured to be greater than 5.0 μM)	< 25	+ (activity was measured to be greater than 5.0 μM)	< 25	+++ (activity was measured to be less than 2.0 μM)	25 to 100
CC(C)(C)CCN1CCC2(CC1)C[C@H](NC(=O)C1CCCC1)c1ccccc12 [compound 225]	+ (activity was measured to be greater than 5.0 μM)	< 25	+ (activity was measured to be greater than 5.0 μM)	< 25	+ (activity was measured to be greater than 5.0 μM)	< 25	+ (activity was measured to be greater than 5.0 μM)	< 25
CCN(CC)C(=O)CN1CCC2(CC1)C[C@H](NC(C)=O)c1ccccc12 [compound 226]	+ (activity was measured to be greater than 5.0 μM)	< 25	+ (activity was measured to be greater than 5.0 μM)	< 25	+ (activity was measured to be greater than 5.0 μM)	< 25	+ (activity was measured to be greater than 5.0 μM)	< 25
CCCC(=O)N[C@H]1CC2(CCN(CCC(C)C)CC2)c2ccccc21 [compound 227]	+ (activity was measured to be greater than 5.0 μM)	< 25	+ (activity was measured to be greater than 5.0 μM)	< 25	+ (activity was measured to be greater than 5.0 μM)	< 25	+ (activity was measured to be greater than 5.0 μM)	< 25
CC(=O)N[C@H]1CC2(CCN(CC(N)=O)CC2)c2ccccc21 [compound 229]	+ (activity was measured to be greater than 5.0 μM)	< 25	+ (activity was measured to be greater than 5.0 μM)	< 25	+ (activity was measured to be greater than 5.0 μM)	< 25	+ (activity was measured to be greater than 5.0 μM)	< 25
CCC(=O)N[C@H]1CC2(CCN(CCC(C)(C)C)CC2)c2ccccc21 [compound 230]	–	25 to 100	–	< 25	–	< 25	–	25 to 100
CCC(=O)N[C@H]1CC2(CCN(CCC(C)C)CC2)c2ccccc21 [compound 231]	+ (activity was measured to be greater than 5.0 μM)	< 25	+ (activity was measured to be greater than 5.0 μM)	< 25	+ (activity was measured to be greater than 5.0 μM)	< 25	+++ (activity was measured to be less than 2.0 μM)	< 25
